This note sets out measurements from US20050222408A1, “Heterocyclic amides with anti-tuberculosis activity” (priority 2003, published 2005).

SMILES strings stand for the structures. Converted amounts (≈) assume the structure as drawn.

For one experiment, the system named is M. tuberculosis H37Ra. As to the kind of experiment: MIC against M. tuberculosis H37Ra, micro broth dilution in microtiter plates. As to conditions: M. tuberculosis H37Ra. In general terms: Broth dilution looks for growth in wells or tubes with falling amounts of substance.
Turning to `O=C(NCc1cccc(N2CCC(Cc3ccccc3)CC2)c1)c1ccc([N+](=O)[O-])o1` [Compound 70, 5-Nitro-furan-2-carboxylic acid 3-(4-benzyl-piperidin-1-yl)-benzylamide], the “anti-tuberculosis MIC activity” value is “extremely potent”.

On to `O=C(c1ccc([N+](=O)[O-])o1)N1CCC(Cc2ccccc2)CC1` [Compound 72], for which the “anti-tuberculosis MIC activity” value is “good activity”.

Regarding `O=C(c1ccc([N+](=O)[O-])o1)N1CCN(Cc2ccccc2)CC1` [Compound 73], the “anti-tuberculosis MIC activity” value is recorded as “good activity”.

Take `COc1cc2c(cc1OC)CN(C(=O)c1ccc([N+](=O)[O-])o1)CC2` [Compound 75]: the “anti-tuberculosis MIC activity” value was “very potent”.

Still in this experiment, the particulars now being: Mycobacterium tuberculosis, H37RA, 168 h, read-out: TB MIC, Table 1; M. tuberculosis H37Ra, 7 days at 37° C., MIC90.
In the case of `O=C(Nc1cccc(OCc2ccccc2)c1)c1ccc([N+](=O)[O-])o1` [Compound 37, 5-Nitro-furan-2-carboxylic acid(3-benzyloxy-phenyl)-amide], the minimal inhibitory concentration (MIC) turned out to be 12.5 µg/mL (≈ 36.9 µM).

The experiment is the same for the next values; noted with them: Mycobacterium tuberculosis, H37RA, Table 6; M. tuberculosis H37Ra, MIC90.
Take `O=C(c1ccc([N+](=O)[O-])o1)N1CCN(c2ncccn2)CC1` [Compound 81, (5-Nitro-furan-2-yl)-(4-pyrimidin-2-yl-piperazin-1-yl)-methanone]: the minimum inhibitory concentration (MIC) is 0.1 µg/mL (≈ 0.33 µM).

`COc1ccc(CN2CCN(C(=O)c3ccc([N+](=O)[O-])o3)CC2)cc1` [Compound 85, [4-(4-Methoxy-benzyl)-piperazin-1-yl]-(5-nitro-furan-2-yl)-methanone] came in with an MIC of 0.1 µg/mL (≈ 0.29 µM).

`COc1cccc(CN2CCN(C(=O)c3ccc([N+](=O)[O-])o3)CC2)c1` [Compound 86, [4-(3-Methoxy-benzyl)-piperazin-1-yl]-(5-nitro-furan-2-yl)-methanone] yielded an MIC of 0.4 µg/mL (≈ 1.16 µM).

The molecule `O=C(c1ccc([N+](=O)[O-])o1)N1CCN(Cc2cccc(OCc3ccccc3)c2)CC1` [Compound 87, [4-(3-Benzyloxy-benzyl)-piperazin-1-yl]-(5-nitro-furan-2-yl)-methanone] registered a minimum inhibitory concentration (MIC) of 0.4 µg/mL (≈ 0.949 µM).

As for `CCN(CC)c1ccc(CN2CCN(C(=O)c3ccc([N+](=O)[O-])o3)CC2)cc1` [Compound 88, [4-(4-Diethylamino-benzyl)-piperazin-1-yl]-(5-nitro-furan-2-yl)-methanone], it took 0.4 µg/mL (≈ 1.04 µM) to inhibit growth (MIC).

`COc1ccc(CN2CCN(C(=O)c3ccc([N+](=O)[O-])o3)CC2)c(OC)c1` [Compound 89, [4-(2,4-Dimethoxy-benzyl)-piperazin-1-yl]-(5-nitro-furan-2-yl)-methanone]: the MIC stood at 0.2 µg/mL (≈ 0.533 µM).

The molecule `O=C(c1ccc([N+](=O)[O-])o1)N1CCN(Cc2ccc(F)cc2)CC1` [Compound 90, [4-(4-Fluoro-benzyl)-piperazin-1-yl]-(5-nitro-furan-2-yl)-methanone] returned a minimal inhibitory concentration (MIC) of 0.4 µg/mL (≈ 1.2 µM).

`CC(=O)c1ccc(N2CCN(C(=O)c3ccc([N+](=O)[O-])o3)CC2)cc1` [Compound 91, 1-{4-[4-(5-Nitro-furan-2-carbonyl)-piperazin-1-yl]-phenyl}-ethanone] came in with an MIC of 0.0031 µg/mL (≈ 0.00903 µM).

In turn, `COc1ccc(N2CCN(C(=O)c3ccc([N+](=O)[O-])o3)CC2)cc1` [Compound 107, [4-(4-Methoxy-phenyl)-piperazin-1-yl]-(5-nitro-furan-2-yl)-methanone] showed a minimal inhibitory concentration (MIC) of 0.05 µg/mL (≈ 0.151 µM).

For `O=C(c1ccc(F)cc1)N1CCN(C(=O)c2ccc([N+](=O)[O-])o2)CC1` [Compound 109, [4-(4-Fluoro-benzoyl)-piperazin-1-yl]-(5-nitro-furan-2-yl)-methanone], 0.05 µg/mL (≈ 0.144 µM) was the least that counted as inhibitory (MIC).

On to `COc1ccc(C(=O)N2CCN(C(=O)c3ccc([N+](=O)[O-])o3)CC2)cc1` [Compound 110, [4-(4-Methoxy-benzoyl)-piperazin-1-yl]-(5-nitro-furan-2-yl)-methanone], for which it took 0.05 µg/mL (≈ 0.139 µM) to inhibit growth (MIC).

Regarding `CN1CCN(/N=C/c2ccc(CNC(=O)c3ccc([N+](=O)[O-])o3)cc2)CC1` [Compound 111, 5-Nitro-furan-2-carboxylic acid 4-[(4-methyl-piperazin-1-ylimino)-methyl]-benzylamide], the MIC is 0.1 µg/mL (≈ 0.269 µM).

The same experiment, now with this note: Table 1; M. tuberculosis H37Ra, 7 days at 37° C., MIC90.
For `COc1ccc(NC(=O)c2ccc([N+](=O)[O-])o2)cc1Cl` [Compound 1], the “TB MIC” value came to 1.6 µg/mL.

For `O=C(Nc1cccc(Br)c1)c1ccc([N+](=O)[O-])o1` [Compound 11, 5-Nitro-furan-2-carboxylic acid(3-bromo-phenyl)-amide], the “TB MIC” value is 1.6 µg/mL.

Consider `COc1ccc(NC(=O)c2ccc([N+](=O)[O-])o2)cc1` [Compound 14, 5-Nitro-furan-2-carboxylic acid(4-methoxy-phenyl)-amide], for which the “TB MIC” value is 0.4 µg/mL.

Turning to `O=C(NCc1ccco1)c1ccc([N+](=O)[O-])o1` [Compound 18, 5-Nitro-furan-2-carboxylic acid(furan-2-ylmethyl)-amide], the “TB MIC” value turned out to be 6.25 µg/mL.

As for `N#Cc1ccc(NC(=O)c2ccc([N+](=O)[O-])o2)cc1` [Compound 19, 5-Nitro-furan-2-carboxylic acid(4-cyano-phenyl)-amide], the “TB MIC” value is 0.8 µg/mL.

Consider `CN(C(=O)c1ccc([N+](=O)[O-])o1)c1ccccc1` [Compound 41], for which the “TB MIC” value was determined as 3.12 µg/mL.

Take `COc1ccc(N(C)C(=O)c2ccc([N+](=O)[O-])o2)cc1` [Compound 42]: the “TB MIC” value was found to be 6.25 µg/mL.

With `O=C(c1ccc([N+](=O)[O-])o1)N1CCc2ccccc21` [Compound 43], the “TB MIC” value was determined as 0.8 µg/mL.

For the molecule `O=C(Nc1cccnc1)c1ccc([N+](=O)[O-])o1` [Compound 45], the “TB MIC” value was 6.25 µg/mL.

As for `O=C(Nc1ccncc1)c1ccc([N+](=O)[O-])o1` [Compound 46], the “TB MIC” value came to 3.12 µg/mL.

Regarding `O=C(NCc1ccccn1)c1ccc([N+](=O)[O-])o1` [Compound 49, 5-nitro-furan-2-carboxylic acid(pyridin-2-ylmethyl)-amide], the “TB MIC” value is 0.8 µg/mL.

Consider `COc1cccc2sc(NC(=O)c3ccc([N+](=O)[O-])o3)nc12` [Compound 50, 5-nitro-furan-2-carboxylic acid(4-methoxy-benzothiazol-2-yl)-amide], for which the “TB MIC” value worked out at 1.6 µg/mL.

On to `COc1cc(NC(=O)c2ccc([N+](=O)[O-])o2)ncn1` [Compound 51, 5-nitro-furan-2-carboxylic acid(6-methoxy-pyrimin-4-yl)-amide], for which the “TB MIC” value stood at 1.6 µg/mL.

The same experiment, now with this note: Table 5; M. tuberculosis H37Ra, MIC90.
In the case of `O=C(NCc1ccc(N2CC[S+]([O-])CC2)cc1)c1ccc([N+](=O)[O-])o1` [Compound 93, 5-Nitro-furan-2-carboxylic acid 4-(1-oxo-¼-thiomorpholin-4-yl)-benzylamide], the MIC turned out to be 0.8 µg/mL (≈ 2.2 µM).

Turning to `O=C(NCc1ccc(N2CCS(=O)(=O)CC2)cc1)c1ccc([N+](=O)[O-])o1` [Compound 94, 5-Nitro-furan-2-carboxylic acid 4-(1,1-dioxo-⅙-thiomorpholin-4-yl)-benzylamide], the MIC came to 6.25 µg/mL (≈ 16.5 µM).

The same experiment, now with this note: Table 6; M. tuberculosis H37Ra, MIC90.
Regarding `O=C(c1ccc([N+](=O)[O-])o1)N1CCN(c2ccc(F)cc2)CC1` [Compound 108, [4-(4-Fluoro-phenyl)-piperazin-1-yl]-(^5-nitro-furan-2-yl)-methanone], the MIC is 0.025 µg/mL (≈ 0.0783 µM).

Still in this experiment, the particulars now being: quoted.
As for `CN(C(=O)c1ccc([N+](=O)[O-])o1)c1ccccc1` [Compound 41], the MIC amounted to 3.1 µg/mL (≈ 12.6 µM).

Another experiment relates to Vero cells. The experiment in a line: Cytotoxicity, alamar blue assay against Vero cells. The format is cell-based. To be noted: Chlorocebus sabaeus, Vero, read-out: ToxIC50. For orientation: The colour change of resazurin is a common sign of viable cells or microbes.
For `O=C(NCCc1ccccc1)c1ccc([N+](=O)[O-])o1` [Compound 27, 5-Nitro-furan-2-carboxylic acid phenethyl-amide], the IC50 is 25.2 µg/mL (≈ 96.9 µM).

The experiment is the same for the next values; noted with them: Chlorocebus sabaeus; Table 1; Vero cells, alamar blue; unit inferred; read-out: ToxIC50.
Regarding `O=C(NC1CCCCC1)c1ccc([N+](=O)[O-])o1` [Compound 15, 5-Nitro-furan-2-carboxylic acid cyclohexylamide], the IC50 stood at 9.08 µg/mL (≈ 38.1 µM).

Turning to `O=C(NC12CC3CC(CC(C3)C1)C2)c1ccc([N+](=O)[O-])o1` [Compound 16, 5-Nitro-furan-2-carboxylic acid adamantan-1-ylamide], the IC50 stood at 9.43 µg/mL (≈ 32.5 µM).

Regarding `O=C(Nc1ccccc1)c1ccc([N+](=O)[O-])o1` [Compound 17, 5-Nitro-furan-2-carboxylic acid phenylamide], the IC50 worked out at 2.19 µg/mL (≈ 9.43 µM).

Consider `COc1ccc(CNC(=O)c2ccc([N+](=O)[O-])o2)cc1` [Compound 20, 5-Nitro-furan-2-carboxylic acid 4-methoxy-benzylamide], for which the IC50 turned out to be 16.4 µg/mL (≈ 59.2 µM).

Regarding `O=C(NCc1ccccc1Cl)c1ccc([N+](=O)[O-])o1` [Compound 21, 5-Nitro-furan-2-carboxylic acid 2-chloro-benzylamide], the IC50 is 11.8 µg/mL (≈ 41.9 µM).

Take `COc1cc(CNC(=O)c2ccc([N+](=O)[O-])o2)cc(OC)c1OC` [Compound 24, 5-Nitro-furan-2-carboxylic acid 3,4,5-trimethoxy-benzylamide]: the IC50 turned out to be 23.6 µg/mL (≈ 70.1 µM).

In the case of `O=C(NC1CCc2ccccc21)c1ccc([N+](=O)[O-])o1` (stereo not drawn) [Compound 26, 5-Nitro-furan-2-carboxylic acid indan-1-ylamide], the IC50 was 10.3 µg/mL (≈ 37.8 µM).

Take `COc1ccc(CNC(=O)c2ccc(Br)o2)cc1` [Compound 32, 5-Bromo-furan-2-carboxylic acid 4-methoxy-benzylamide]: the IC50 is 90.5 µg/mL (≈ 292 µM).

Take `O=C(Nc1cccc(O)c1)c1ccc([N+](=O)[O-])o1` [Compound 35, 5-Nitro-furan-2-carboxylic acid(3-hydroxy-phenyl)-amide]: the IC50 amounted to 12.5 µg/mL (≈ 50.4 µM).

On to `COc1cccc(NC(=O)c2ccc([S+]([O-])c3ccccc3)o2)c1` (stereo not drawn) [Compound 38, 5-Benzenesulfinyl-furan-2-carboxylic acid(3-methoxy-phenyl)-amide], for which the IC50 came to 65 µg/mL (≈ 190 µM).

Consider `COc1cccc(NC(=O)c2ccc(S(=O)(=O)c3ccccc3)o2)c1` [Compound 39, 5-Benzenesulfonyl-furan-2-carboxylic acid(3-methoxy-phenyl)-amide], for which the IC50 came to 25.9 µg/mL (≈ 72.3 µM).

With `CCOC(=O)c1ccc(C(=O)Nc2cccc(OC)c2)o1` [Compound 40, 5-(3-Methoxy-phenylcarbamoyl)-furan-2-carboxylic acid ethyl ester], the IC50 was 200 µg/mL (≈ 691 µM).

The experiment is the same for the next values; noted with them: Table 1; Vero cells, alamar blue; unit not given.
`O=C(Nc1cccc(Br)c1)c1ccc([N+](=O)[O-])o1` [Compound 11, 5-Nitro-furan-2-carboxylic acid(3-bromo-phenyl)-amide] gave a ToxIC50 of 15.37.

`COc1ccc(NC(=O)c2ccc([N+](=O)[O-])o2)cc1` [Compound 14, 5-Nitro-furan-2-carboxylic acid(4-methoxy-phenyl)-amide] registered a ToxIC50 of 21.44.

`O=C(NCc1ccco1)c1ccc([N+](=O)[O-])o1` [Compound 18, 5-Nitro-furan-2-carboxylic acid(furan-2-ylmethyl)-amide] displayed a ToxIC50 of 4.08.

Consider `N#Cc1ccc(NC(=O)c2ccc([N+](=O)[O-])o2)cc1` [Compound 19, 5-Nitro-furan-2-carboxylic acid(4-cyano-phenyl)-amide], for which the ToxIC50 is recorded as 3.53.

Broadly, the MIC is the least concentration at which growth counts as inhibited.
